Drawing on patent US20020028807A1, “Non-nucleoside reverse transcriptase inhibitors” (priority 2000, published 2002), this text covers IC50 and EC50 for 3 compounds.

The target of one experiment is T1, HIV-1 RT K103N (Human immunodeficiency virus type 1 group M subtype B, UniProt P03366, K702N).
T1 construct: an HIV RT clone pKRT2 containing only the RT p66 gene regulated by the lac operon/trc promoter; made in house; host or cells: E. coli JM109, vector pKK233-2
Kind of experiment: Reverse transcriptase (RT) assay, K103N mutant. It counts as biochemical. The method in brief:
(§1)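 First, RT mutants were generated by site-directed mutagenesis of the BH10 p66 gene, expressed in E. coli and purified as p66/p51 heterodimer. Then compounds were tested for inhibition of DNA synthesis on biotinylated oligo d(G)-primed poly r(C), with 3H-dGTP supplying label.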

A further experiment addresses T2, HIV-1 RT V106A (Human immunodeficiency virus type 1 group M subtype B, UniProt P03366, V705A).
T2 construct: an HIV RT clone pKRT2 containing only the RT p66 gene regulated by the lac operon/trc promoter; made in house; host or cells: E. coli JM109, vector pKK233-2
Kind of experiment: Reverse transcriptase (RT) assay, V106A mutant. It counts as biochemical. The gist of the method:
as §1

A further experiment has as its target T3, HIV-1 RT Y188L (Human immunodeficiency virus type 1 group M subtype B, UniProt P03366, Y787L).
T3 construct: an HIV RT clone pKRT2 containing only the RT p66 gene regulated by the lac operon/trc promoter; made in house; host or cells: E. coli JM109, vector pKK233-2
Kind of experiment: Reverse transcriptase (RT) assay, Y188L mutant. It counts as biochemical. The gist of the method: as §1

The target of the next experiment is T4, HIV-1 RT K103N/Y181C (Human immunodeficiency virus type 1 group M subtype B, UniProt P03366, K702N/Y780C).
T4 construct: an HIV RT clone pKRT2 containing only the RT p66 gene regulated by the lac operon/trc promoter; made in house; host or cells: E. coli JM109, vector pKK233-2
Nature of the experiment: Reverse transcriptase (RT) assay, K103N/Y181C mutant. It is filed as biochemical. The gist of the method:
as §1

Another experiment deals with T5, HIV-1 RT K103N/V108I (Human immunodeficiency virus type 1 group M subtype B, UniProt P03366, K702N/V707I).
T5 construct: an HIV RT clone pKRT2 containing only the RT p66 gene regulated by the lac operon/trc promoter; made in house; host or cells: E. coli JM109, vector pKK233-2
Kind of experiment: Reverse transcriptase (RT) assay, K103N/V108I mutant. It is filed as biochemical. The method in brief:
as §1

A further experiment deals with T6, HIV-1 RT K103N/L100I (Human immunodeficiency virus type 1 group M subtype B, UniProt P03366, K702N/L699I).
T6 construct: an HIV RT clone pKRT2 containing only the RT p66 gene regulated by the lac operon/trc promoter; made in house; host or cells: E. coli JM109, vector pKK233-2
Kind of experiment: Reverse transcriptase (RT) assay, K103N/L100I mutant. It is filed as biochemical. The gist of the method: as §1

The subject of experiment [1] is HIV coding for mutant reverse transcriptase K103N. Nature of the experiment: ELISA (p24) assay of HIV replication in C8166 cell culture, K103N virus. It is filed as cell-based, HIV-1. As to conditions: Human immunodeficiency virus 1, C8166, 72 h, read-out: EC50 K103N. As for the experimental part: (§2) Compounds of the invention were tested for their ability to inhibit HIV replication in cell culture in a 96-well plate assay. Complete RPMI 1640, consisting of RPMI 1640+10% fetal bovine serum, 10 μg/ml gentamycin and 10 μM β-mercaptoethanol was used for dilution of the compound as well as cell growth medium. The T lymphocyte cell line C8166 was infected at a multiplicity of infection of 0.001 with viruses coding for wild-type and mutant reverse transcriptase. Cells were then incubated for three days in the presence of serial dilutions of the compounds of the invention. The supernatant was pooled from eight replica wells and the concentration of extracellular p24 was determined using a commercially available HIV-1 p24 antigen assay kit (Beckman-Coulter®). The level of inhibition (% inhibition) was calculated with the following equation: [formula]
On the technique in general: ELISA stands for enzyme-linked immunosorbent assay.

In experiment [2] the test system is HIV coding for mutant reverse transcriptase V106A. Kind of experiment: ELISA (p24) assay of HIV replication in C8166 cell culture, V106A virus. It counts as cell-based, HIV-1. As to conditions: Human immunodeficiency virus 1, C8166, 72 h, read-out: EC50 V106A. As to the method: as §2
The test system of experiment [3] is HIV coding for mutant reverse transcriptase K103N/L100I. Kind of experiment: ELISA (p24) assay of HIV replication in C8166 cell culture, K103N/L100I virus. It counts as cell-based, HIV-1. As to conditions: Human immunodeficiency virus 1, C8166, 72 h, read-out: EC50 K103N/L100I. As to the method:
as §2

pEC50, pIC50: −log10 of the molar value.

Usually pIC50 stands for −log10 of the IC50, conventionally taken in molar units.

Take `CCN1c2ncc(CCOc3cc[n+]([O-])c4ccccc34)cc2C(=O)N(C)c2ccc(F)nc21` [compound 11, 5,11-Dihydro-11-ethyl-2-fluoro-5-methyl-8-{2-{(1-oxido-4-quinolinyl)oxy}-ethyl}-6H-dipyrido[3,2-b:2′,3′-e][1,4]diazepin-6-one]: the pIC50 at HIV-1 RT K103N was 7.74; on HIV-1 RT V106A, 6.47; on HIV-1 RT Y188L, 6.18; at HIV-1 RT K103N/Y181C, 7.26; on HIV-1 RT K103N/V108I it was 7.26; on HIV-1 RT K103N/L100I, 6.99. For the same compound, the figures for the pEC50 in [1], in experiment [2] and in [3] were 8.70, 7.55 and 8.49, respectively.

For `CCN1c2ncc(CCOc3cc[n+]([O-])c4ccccc34)cc2C(=O)N(C)c2ccc(Cl)nc21` [compound 17, 2-Chloro-5,11-dihydro-11-ethyl-5-methyl-8-{2-{(1-oxido-4-quinolinyl)oxy}-ethyl}-6H-dipyrido[3,2-b:2′,3′-e][1,4]diazepin-6-one], the pIC50 is 7.60 on HIV-1 RT K103N; 6.50 at HIV-1 RT V106A; 6.70 at HIV-1 RT Y188L; 7.32 at HIV-1 RT K103N/Y181C; 7.08 at HIV-1 RT K103N/V108I; 7.40 on HIV-1 RT K103N/L100I. The pEC50 in experiment [1] was 8.82; in experiment [2], 7.62; in experiment [3], 8.92.

For the compound `CCN1c2ncc(CCOc3cc[n+]([O-])c4ccccc34)cc2C(=O)N(C)c2cccnc21` [compound 21, 5,11-Dihydro-11-ethyl-5-methyl-8-{2-{(1-oxido-4-quinolinyl)oxy}ethyl}-6H-dipyrido[3,2-b:2′,3′-e][1,4]diazepin-6-one], the negative logarithm of the IC50 (pIC50) was 7.36 at HIV-1 RT K103N; 5.96 at HIV-1 RT V106A; 5.87 at HIV-1 RT Y188L; 7.02 at HIV-1 RT K103N/Y181C; 6.92 on HIV-1 RT K103N/V108I; 6.77 at HIV-1 RT K103N/L100I. Besides, the pEC50 is 8.46 in experiment [1], 7.19 in [2] and 8.23 in experiment [3].
